According to patent US20050171102A1, “Semicarbazide derivatives for combating thromboembolic diseases” (priority 2002, published 2005):
Where a name gives a salt, the structure may show the parent alone.

What was measured:
TF/FVIIa = TF/FVIIa (Homo sapiens, UniProt P08709); assay: TF/FVIIa inhibition (TF/FVIIa-IC50), Table 3 'Affinity to Receptors'
FXa = FXa (Homo sapiens, UniProt P00742); assay: Factor Xa inhibition (FXa-IC50), Table 3 'Affinity to Receptors'
Sequence of FXa (P00742 235-488 limits assumed): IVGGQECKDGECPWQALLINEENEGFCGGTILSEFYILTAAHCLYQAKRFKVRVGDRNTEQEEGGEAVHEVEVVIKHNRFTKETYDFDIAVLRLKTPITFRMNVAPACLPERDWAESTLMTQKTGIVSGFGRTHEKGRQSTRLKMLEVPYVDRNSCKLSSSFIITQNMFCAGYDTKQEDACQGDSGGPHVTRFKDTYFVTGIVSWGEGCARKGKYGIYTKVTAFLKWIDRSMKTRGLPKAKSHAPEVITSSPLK
Sequence of FXa (P00742 41-179 limits assumed): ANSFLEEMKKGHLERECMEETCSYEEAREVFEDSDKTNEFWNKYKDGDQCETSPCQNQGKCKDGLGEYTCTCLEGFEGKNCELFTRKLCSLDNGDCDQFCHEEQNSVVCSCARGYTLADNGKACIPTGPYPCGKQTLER

Sequence of TF/FVIIa (P08709 213-466 limits assumed): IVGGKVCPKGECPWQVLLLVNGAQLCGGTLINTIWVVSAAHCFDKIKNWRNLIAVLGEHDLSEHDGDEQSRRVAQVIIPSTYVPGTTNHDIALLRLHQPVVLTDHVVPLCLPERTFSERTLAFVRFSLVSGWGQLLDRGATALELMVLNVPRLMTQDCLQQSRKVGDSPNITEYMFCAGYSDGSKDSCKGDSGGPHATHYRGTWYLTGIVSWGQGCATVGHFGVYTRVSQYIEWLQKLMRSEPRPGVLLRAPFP
Sequence of TF/FVIIa (P08709 61-212 limits assumed): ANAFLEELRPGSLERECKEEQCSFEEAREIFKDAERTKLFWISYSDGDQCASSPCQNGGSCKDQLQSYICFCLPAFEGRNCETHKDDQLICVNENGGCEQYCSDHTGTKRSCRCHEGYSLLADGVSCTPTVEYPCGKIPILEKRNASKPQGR
Sequence of TF/FVIIa (P13726 33-295 partner): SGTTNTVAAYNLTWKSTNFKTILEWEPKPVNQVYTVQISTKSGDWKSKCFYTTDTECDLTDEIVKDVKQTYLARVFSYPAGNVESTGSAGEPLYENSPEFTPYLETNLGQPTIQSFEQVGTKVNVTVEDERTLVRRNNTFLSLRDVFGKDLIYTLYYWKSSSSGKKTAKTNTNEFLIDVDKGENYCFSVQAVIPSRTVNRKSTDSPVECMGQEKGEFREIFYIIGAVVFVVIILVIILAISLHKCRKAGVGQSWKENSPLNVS

melting point [°C]	IC50 (TF/FVIIa) [nM]	IC50 (FXa) [nM]	SMILES
172 to 173			Cc1cc(NC(=O)NN(c2ccccc2)c2cccc(CN)c2)ccc1N1CCCCC1=O.Cl
115 to 116			Cc1cc(NC(=O)NN(c2ccccc2)c2cccc(C#N)c2)ccc1N1CCOCC1 [5′, 1-(3-cyanophenyl)-4-[3-methyl-4-(morpholin-4-yl)phenyl]-1-phenylsemicarbazide]
239 to 241			N#Cc1cccc(NN(C(=O)Nc2ccc(N3CCCCC3=O)cc2)c2ccccc2)c1 [5″, 1-(3-cyanophenyl)-4-[4-(2-oxopiperidin-1-yl)phenyl]-2-phenylsemicarbazide]
	27	20	N=C(N)c1cccc(NN(C(=O)Nc2ccc(N3CCOCC3=O)c(Cl)c2)c2ccccc2)c1 [Compound 4.AA, 1-(3-amidinophenyl)-4-[3-chloro-4-(3-oxomorpholin-4-yl)phenyl]-2-phenylsemicarbazide, hydrochloride]
161 to 162			Cc1cc(NC(=O)NN(c2ccccc2)c2cccc(C#N)c2)ccc1N1CCCCC1=O [Compound 6, 1-(3-cyanophenyl)-4-[3-methyl-4-(2-oxopiperidin-1-yl)phenyl]-1-phenylsemicarbazide]
> 300	9.8	16	Cc1cc(NC(=O)NN(c2ccccc2)c2cccc(C(=N)N)c2)ccc1N1CCCCC1=O.Cl [Compound 10, 1-(3-amidinophenyl)-4-[3-methyl-4-(2-oxopiperidin-1-yl)phenyl]-1-phenylsemicarbazide, hydrochloride]
> 300	5.1	8.6	Cc1cc(NC(=O)N(Nc2cccc(C(=N)N)c2)c2ccccc2)ccc1N1CCCCC1=O.Cl [Compound 11, 1-(3-amidinophenyl)-4-[3-methyl-4-(2-oxopiperidin-1-yl)phenyl]-2-phenylsemicarbazide, hydrochloride]
95 to 97	170	130	Cc1cc(NC(=O)N(Nc2cccc(CN)c2)c2ccccc2)ccc1N1CCCCC1=O.Cl [Compound 13, 1-(3-aminomethylphenyl)-4-[3-methyl-4-(2-oxopiperidin-1-yl)phenyl]-2-phenylsemicarbazide, hydrochloride]
